Common to all, as to assay type: cell-based
In assay [1] the test system is PGD2 production from IgE-stimulated RBL-2H3 cells. Kind of assay: Suppressing action on PGD2 production from IgE-stimulated RBL-2H3 cells. To be noted: Rattus norvegicus, 10 min, IgE/DNP-BSA stimulated RBL-2H3 cells, read-out: PGD2 production suppression ratio. An excerpt: (§1) 2. Suppressing Action on PGD2 and LTB4 Production from IgE-Stimulated RBL-2H3 Cells
(§2) Suppressing action on PGD2 and LTB4 production caused by IgE as an allergic stimulant was investigated by the following method. Cells of RBL-2H3, which is a rat mastocytoma cell line (purchased from ATCC), were suspended in DEMEM medium (GIBCO) containing 10% fetal bovine serum (BioFluid), inoculated to each well of 48-well culture plate at a density of 2×10^4 cells/well and cultured overnight. Then, IgE antiserum directed to dinitrophenylated BSA (henceforth DNP-BSA) was further added to each well, and the cells were cultured for 30 minutes. Then, the medium was changed to DEMEM medium containing 0.5% fetal bovine serum, a test compound was added with each well, and DNP-BSA was further added at a final concentration of 100 ng/ml as a stimulant. Ten minutes after the stimulant was added, the culture supernatant was collected, and the PGD2 concentration and LTB4 concentration in the culture supernatant were measured by using EIA kit (CAYMAN). By using a well which was not added with the stimulant as a negative control and a well which was added only with the stimulant as a positive control, suppressing ratios on mediator production were calculated from the production amounts of the mediators in the well added with the test compound using the following equation. PGD2 or LTB4 production suppression ratio=[1−(C−B)/(A−B)]×100 • A: PGD2 or LTB4 production amount of positive control • B: PGD2 or LTB4 production amount of negative control • C: PGD2 or LTB4 production amount in well added with test compound
(§3) Further, as control compounds for comparison, reference compound (1), 3-(2-cyclohexylmethyloxy-1,1′-biphenyl-5-yl)propionic acid described in WO99/19291, reference compounds (2) and (3), [2-(5,6,7,8-tetrahydro-5,5,8,8-tetramethyl-2-naphthalenyl)methyloxy-1,1′-biphenyl-5-yl]carboxylic acid [reference compound (2)] and 3-[3′-carboxy-2-(5,6,7,8-tetrahydro-5,5,8,8-tetramethyl-2naphthalenyl)methyloxy-1,1′-biphenyl-6-yl]propionic acid [reference compound (3)] described in U.S. Pat. No. 5,391,817 and Japanese Patent Unexamined Publication (Kokai) No. 7-22399, respectively, were used, and activities thereof were similarly measured.

Assay [2] concerns LTB4 production from IgE-stimulated RBL-2H3 cells. Kind of assay: Suppressing action on LTB4 production from IgE-stimulated RBL-2H3 cells. To be noted: Rattus norvegicus, 10 min, IgE/DNP-BSA stimulated RBL-2H3 cells, read-out: LTB4 production suppression ratio.
Excerpt: as §1, §2, §3

Assay [3] relates to PGE2 production from IL-1β-stimulated MG-63 cells. Description: Suppressing action on PGE2 production from IL-1β-stimulated MG-63 cells. To be noted: Homo sapiens, IL-1β 1 ng/ml, 18 hours, read-out: PGE2 production suppression ratio. An outline of the steps: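 Human osteosarcoma MG-63 cells (2×10^4/well) switched to 0.5% FBS medium, treated with compound, then stimulated with IL-1β at 1 ng/ml final for 18 h. Supernatant PGE2 measured by EIA; suppression ratio calculated against stimulated and unstimulated wells.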

Among the data in patent US6867320B2, “Substituted phenylalkanoic acid derivatives and use thereof” (Asahi Kasei Pharma Corporation, priority 2002, dated 2005) are inhibition values, retold here.

Turning to `CNc1ccc2cc(-c3cc(CCC(=O)O)ccc3OCC3CCCC3)ccc2c1` [Compound 016, 3-{4-cyclopentylmethyloxy-3-[6-(N-methylamino)naphthalen-2-yl]phenyl}propionic acid], the inhibition at 0.4 µM in assay [1], in assay [2] and in assay [3] was at least 50% throughout.
Turning to `O=C(O)CCc1ccc(OCc2cccc(F)c2)c(-c2ccc3ccccc3c2)c1` [Compound 035, 3-[4-(3-fluorophenylmethyloxy)-3-(naphthalen-2-yl)phenyl]propionic acid], the inhibition at 0.4 µM in assay [1] and in assay [2] was at least 50% each time.
`O=C(O)CCc1ccc(OC2CCCCC2)c(-c2ccc3ccccc3c2)c1` [Compound 045, 3-[4-cyclohexyloxy-3-(naphthalen-2-yl)phenyl]propionic acid]: the inhibition at 0.4 µM in assay [1], in assay [2] and in assay [3] was at least 50% each time.
Take `O=C(O)CCc1ccc(OCC2CCCC2)c(-c2ccc3cc(NCCO)ccc3c2)c1` [Compound 075, 3-{4-cyclopentylmethyloxy-3-[6-(2-hydroxyethylamino)naphthalen-2-yl]phenyl}propionic acid]: the inhibition at 0.4 µM in assay [1], in assay [2] and in assay [3] was at least 50% each time.
Regarding `O=C(O)CCc1ccc(OCC2CCCC2)c(-c2ccc3cc(NC(=O)c4ccco4)ccc3c2)c1` [Compound 081, 3-(4-cyclopentylmethyloxy-3-{6-[(furan-2-carbonyl)amino]naphthalen-2-yl}phenyl)propionic acid], the inhibition at 0.4 µM in assay [1], in assay [2] and in assay [3] was at least 50% throughout.
Turning to `O=C(O)CCc1ccc(OCc2ccc(Cl)cc2Cl)c(-c2ccc3[nH]ccc3c2)c1` [Compound 162, 3-[4-(2,4-dichlorophenylmethyloxy)-3-(1H-indol-5-yl)phenyl]propionic acid], the inhibition at 0.4 µM in assay [1], in assay [2] and in assay [3] was at least 50% in each case.
For `O=C(O)CCc1ccc(OCCc2cccc(Cl)c2)c(-c2ccc3[nH]ccc3c2)c1` [Compound 211, 3-{4-[2-(3-chlorophenyl)ethyloxy]-3-(1H-indol-5-yl)phenyl}propionic acid], the inhibition at 0.4 µM in assay [1], in assay [2] and in assay [3] was at least 50% throughout.
For `CCn1ccc2cc(-c3cc(CCC(=O)O)ccc3OCc3ccccc3Cl)ccc21` [Compound 250, 3-[4-(2-chlorophenylmethyloxy)-3-(1-ethyl-1H-indol-5-yl)phenyl]propionic acid], the inhibition at 0.4 µM in assay [1], in assay [2] and in assay [3] was at least 50% each time.
As to `Nc1nc2ccc(-c3cc(CCC(=O)O)ccc3OCC3CCCC3)cc2s1` [Compound 287, 3-[3-(2-aminobenzothiazol-6-yl)-4-cyclopentylmethyloxyphenyl]propionic acid], the inhibition at 0.4 µM in assay [1], in assay [2] and in assay [3] was at least 50% each time.
On to `O=C(O)CCc1cc(F)c(OC2CCCC2)c(-c2ccc3[nH]ncc3c2)c1` [Compound 481, 3-[4-cyclopentyloxy-3-fluoro-5-(1H-indazol-5-yl)phenyl]propionic acid], for which the inhibition at 0.4 µM in assay [1], in assay [2] and in assay [3] was at least 50% each time.
Consider `Cn1ncc2cc(-c3cc(CCC(=O)O)cc(F)c3OC3CCCC3)ccc21` [Compound 483, 3-[4-cyclopentyloxy-3-fluoro-5-(1-methyl-1H-indazol-5-yl)phenyl]propionic acid], for which the inhibition at 0.4 µM in assay [1], in assay [2] and in assay [3] was at least 50% each time.
Regarding `Nc1cc(CCC(=O)O)cc(-c2ccc3[nH]ncc3c2)c1OC1Cc2ccccc2C1` [Compound 486, 3-[3-amino-4-(indan-2-yloxy)-5-(1H-indazol-5-yl)phenyl]propionic acid], the inhibition at 0.4 µM in assay [1], in assay [2] and in assay [3] was at least 50% in each case.
Consider `CCn1ncc2cc(-c3cc(CCC(=O)O)cc(N)c3OC3Cc4ccccc4C3)ccc21` [Compound 489, 3-[3-amino-5-(1-ethyl-1H-indazol-5-yl)-4-(indan-2-yloxy)phenyl]propionic acid], for which the inhibition at 0.4 µM in assay [1], in assay [2] and in assay [3] was at least 50% in each case.
As for `Cn1ncc2cc(-c3cc(CCC(=O)O)cc(O)c3OC3Cc4ccccc4C3)ccc21` [Compound 569, 3-[4-(indan-2-yloxy)-3-hydroxy-5-(1-methyl-1H-indazol-5-yl)phenyl]propionic acid], the inhibition at 0.4 µM in assay [1], in assay [2] and in assay [3] was at least 50% each time.
On to `Cc1cc(CCC(=O)O)cc(-c2ccc3c(cnn3C)c2)c1OC1CCCC1` [Compound 572, 3-[4-cyclopentyloxy-3-methyl-5-(1-methyl-1H-indazol-5-yl)phenyl]propionic acid], for which the inhibition at 0.4 µM in assay [1], in assay [2] and in assay [3] was at least 50% throughout.
As for `CN(C)c1cc(CCC(=O)O)cc(-c2ccc3c(cnn3C)c2)c1OC1Cc2ccccc2C1` [Compound 586, 3-[4-(indan-2-yloxy)-3-(N,N-dimethylamino)-5-(1-methyl-1H-indazol-5-yl)phenyl]propionic acid], the inhibition at 0.4 µM in assay [1], in assay [2] and in assay [3] was at least 50% in each case.
Regarding `O=C(O)CCc1ccc(OCC2CCCCC2)c(-c2ccccc2)c1` [reference compound (1), 3-(2-cyclohexylmethyloxy-1,1′-biphenyl-5-yl)propionic acid, reference compound], the inhibition at 0.4 µM is -12.9% in assay [1] and -5.9% in assay [2].
On to `CC1(C)CCC(C)(C)c2cc(COc3ccc(C(=O)O)cc3-c3ccccc3)ccc21` [reference compound (2), [2-(5,6,7,8-tetrahydro-5,5,8,8-tetramethyl-2-naphthalenyl)methyloxy-1,1′-biphenyl-5-yl]carboxylic acid, reference compound], for which the inhibition at 0.4 µM in assay [1] is -17.6%; in assay [2], -15.3%.
In the case of `CC1(C)CCC(C)(C)c2cc(COc3cccc(CCC(=O)O)c3-c3cccc(C(=O)O)c3)ccc21` [reference compound (3), 3-[3′-carboxy-2-(5,6,7,8-tetrahydro-5,5,8,8-tetramethyl-2naphthalenyl)methyloxy-1,1′-biphenyl-6-yl]propionic acid, reference compound], the inhibition at 0.4 µM in assay [1] is 2.1%; in assay [2] it was -6.3%.
